Measurements published in ChEMBL document CHEMBL5346962, “Discovery of Sulanemadlin (ALRN-6924), the First Cell-Permeating, Stabilized α-Helical Peptide in Clinical Development” (J Med Chem, 2023).
Activity calls are given as the source filed them. No cut-off for these calls is given here.

What was measured:
[1] = Induction of cell cycle arrest in human CD34+ cells assessed as accumulation at S phase at 0.1 uM incubated for 24 hrs by flow cytometry (reference value: 27.5 +/- 5.8%); assay type: toxicity, cell-based; settings: cd34-positive (myeloid/lymphoid) cell
[2] = Plasma protein binding in mouse at 2 to 50 uM; assay type: ADME, cell-free; settings: dose 2-50 µM, read-out: PPB (converted)
[3] = AUC (all) in cynomolgous monkey at 5 mg/kg by LC-MS/MS analysis; assay type: ADME, organism-based, Macaca fascicularis; design: dose 5 mg/kg; settings: cynomolgus monkey, in vivo
[4] = test system: Mus musculus; test: Protection against topotecan-induced neutropenia in C57BL/6 mouse assessed as increase in neutrophil level at 2.4 mg/kg administered on day 0 to 4 and co-administered 30 mins prior to topotecan on day 1 to 4 followed by topotecan administration on day 5 measured on day 7 by CBC analysis relative to control; assay type: functional; settings: time 7 day
[5] = Induction of cell cycle arrest in human CD34+ cells assessed as accumulation at S phase at 1 uM incubated for 24 hrs by flow cytometry (reference value: 27.5 +/- 5.8%); assay type: toxicity, cell-based; settings: cd34-positive (myeloid/lymphoid) cell
[6] = test system: MCF7; test: Antitumor activity against human MCF7 cells xenografted in athymic nude BALB/c mouse assessed as upregulation of p21 protein level at 20 mg/kg, iv by immunohistochemical analysis; assay type: functional, organism-based; settings: time <= 48.0 hrs, TDE = time-dependent effect
[7] = test system: Fibroblast; test: Protection against chemotherapy-induced apoptosis in human fibroblast assessed as decrease in caspase-3/7 level preincubated for 16 hrs followed by vinblastine addition measured after 32 hrs; assay type: functional, cell-based; settings: dose 4.6-10 µM, time 48.0 hrs
[8] = test system: BT-474; test: […] chemotherapy-induced apoptosis in human BT-474 cells assessed as decrease in caspase-3/7 level at 4.6 to 10 uM preincubated for 16 hrs followed by paclitaxel addition measured after 32 hrs; assay type: functional, cell-based; settings: dose 4.6-10 µM, time 48.0 hrs
[9] = Drug uptake in tumor of athymic nu/nu mouse xenografted with human SJSA-1 cells assessed as half life of metabolite ALRN-8714 at 25 mg/kg, iv measured for 24 hrs by LC-MS-MS analysis; assay type: ADME, organism-based, Neoplasm; settings: in vivo
[10] = test system: Mus musculus; test: Protection against topotecan-induced epithelium hyperplasia in gastrointestinal tract of C57BL/6 mouse at 2.4 mg/kg administered on day 0 to 4 and co-administered 30 mins prior to topotecan on day 1 to 4 followed by topotecan administration on day 5 measured on day 9 by H&E staining based analysis; assay type: functional, organism-based; settings: time 9.0 day
[11] = test system: Mus musculus; test: Protection against topotecan-induced crypt loss in gastrointestinal tract of C57BL/6 mouse at 2.4 mg/kg administered on day 0 to 4 and co-administered 30 mins prior to topotecan on day 1 to 4 followed by topotecan administration on day 5 measured on day 9 by H&E staining based analysis; assay type: functional, organism-based; settings: time 9.0 day
[12] = Half life in cynomolgous monkey at 5 mg/kg by LC-MS/MS analysis; assay type: ADME, organism-based, Macaca fascicularis; settings: cynomolgus monkey, in vivo
[13] = Induction of cell cycle arrest in human CD34+ cells at 1 uM incubated for 24 hrs followed by compound wash-out and addition of fresh-medium containing compounds measured after 24 hrs by flow cytometry; assay type: toxicity, cell-based; settings: cd34-positive (myeloid/lymphoid) cell, 48 h
[14] = Clearance in rat at 10 mg/kg by LC-MS/MS analysis; assay type: ADME, organism-based; settings: in vivo
[15] = Induction of cell cycle arrest in human CD34+ cells assessed as accumulation at S phase at 2.5 uM incubated for 24 hrs by flow cytometry (reference value: 27.5 +/- 5.8%); assay type: toxicity, cell-based; settings: cd34-positive (myeloid/lymphoid) cell
[16] = test system: Mus musculus; test: Upregulation of p21 expression level in gastrointestinal tract of C57BL/6 mouse at 2.4 mg/kg, iv administered every 8 hrs measured for 16 hrs by immunohistochemical analysis; assay type: functional, organism-based
[17] = Cmax in rat at 10 mg/kg by LC-MS/MS analysis; assay type: ADME, organism-based; design: dose 10 mg/kg; settings: in vivo
[18] = test system: Mus musculus; test: Protection against topotecan-induced epithelium hypertrophy in gastrointestinal tract of C57BL/6 mouse at 2.4 mg/kg administered on day 0 to 4 and co-administered 30 mins prior to topotecan on day 1 to 4 followed by topotecan administration on day 5 measured on day 9 by H&E staining based analysis; assay type: functional, organism-based; settings: time 9.0 day
[19] = Half life in rat at 2.5 mg/kg by LC-MS/MS analysis; assay type: ADME, organism-based; settings: in vivo
[20] = test system: Fibroblast; test: Protection against chemotherapy-induced apoptosis in human fibroblast assessed as decrease in caspase-3/7 level preincubated for 16 hrs followed by gemcitabine.HCl addition measured after 32 hrs; assay type: functional, cell-based; settings: dose 4.6-10 µM, time 48.0 hrs
[21] = Clearance in rat at 2.5 mg/kg by LC-MS/MS analysis; assay type: ADME, organism-based; settings: in vivo
[22] = test system: BT-474; test: […] chemotherapy-induced apoptosis in human BT-474 cells assessed as decrease in caspase-3/7 level at 4.6 to 10 uM preincubated for 16 hrs followed by docetaxel addition measured after 32 hrs; assay type: functional, cell-based; settings: dose 4.6-10 µM, time 48.0 hrs
[23] = Solubility of the compound in aqueous solution at pH 7.5 incubated for 1 hr by spectrophotometric analysis; assay type: physicochemical
[24] = Plasma protein binding in dog at 2 to 50 uM; assay type: ADME, cell-free, Canis lupus familiaris; settings: dose 2-50 µM, read-out: PPB (converted)
[25] = Cmax in rat at 2.5 mg/kg by LC-MS/MS analysis; assay type: ADME, organism-based; design: dose 2.5 mg/kg; settings: in vivo
[26] = test system: Fibroblast; test: Protection against chemotherapy-induced apoptosis in human fibroblast assessed as decrease in caspase-3/7 level preincubated for 16 hrs followed by oxaliplatin addition measured after 32 hrs; assay type: functional, cell-based; settings: dose 4.6-10 µM, time 48.0 hrs
[27] = test system: SJSA-1; test: Antitumor activity against human SJSA-1 cells xenografted in athymic nu/nu mouse […] assessed as tumor growth inhibition administered intravenously twice a week measured for 15 days; assay type: functional, cell-based; settings: dose 5-20 mg/kg, route iv, time 15.0 day
[28] = test system: CD34-positive (myeloid/lymphoid) cell; test: Protection against chemotherapy-induced cell cycle arrest in human CD34+ cells assessed as DNA damage by measuring gamma-H2AX level at 1 uM preincubated for 24 hrs followed by topotecan addition measured after 24 hrs; assay type: functional, cell-based; settings: time 48.0 hrs
[29] = test system: NCI-H69; test: Antitumor activity against human NCI-H69 cells xenografted in athymic nu/nu mouse assessed as reduction in tumor volume at 8 mg/kg administered on day 0 to 4 and co-administered 30 mins prior to topotecan on day 1 to 4 followed by topotecan administration on day 5 measured for 60 days; assay type: functional, organism-based; settings: time 60.0 day
[30] = test system: MCF7; test: Antitumor activity against human MCF7 cells xenografted in athymic nude BALB/c mouse assessed as upregulation of p53 protein level at 20 mg/kg, iv by immunohistochemical analysis; assay type: functional, organism-based; settings: time <= 48.0 hrs, TDE = time-dependent effect
[31] = test system: MV4-11; test: Antitumor activity against human MV4-11 cells xenografted in athymic nu/nu mouse model of AML assessed as tumor growth inhibition; assay type: functional, cell-based
[32] = Cmax in cynomolgous monkey at 10 mg/kg by LC-MS/MS analysis; assay type: ADME, organism-based, Macaca fascicularis; design: dose 10 mg/kg; settings: cynomolgus monkey, in vivo
[33] = AUC (all) in cynomolgous monkey at 10 mg/kg by LC-MS/MS analysis; assay type: ADME, organism-based, Macaca fascicularis; design: dose 10 mg/kg; settings: cynomolgus monkey, in vivo
[34] = Induction of cell cycle arrest in human CD34+ cells assessed as accumulation at S phase at 5 uM incubated for 24 hrs by flow cytometry (reference value: 27.5 +/- 5.8%); assay type: toxicity, cell-based; settings: cd34-positive (myeloid/lymphoid) cell
[35] = Drug uptake in plasma of athymic nu/nu mouse xenografted with human SJSA-1 cells assessed as half life of metabolite ALRN-8714 at 25 mg/kg, iv measured for 24 hrs by LC-MS-MS analysis; assay type: ADME, organism-based; settings: in vivo
[36] = Half life in rat at 5 mg/kg by LC-MS/MS analysis; assay type: ADME, organism-based; settings: in vivo
[37] = Plasma protein binding in rat at 2 to 50 uM; assay type: ADME, cell-free; settings: dose 2-50 µM, read-out: PPB (converted)

For `CC(=O)N[C@@H](CC(C)C)C(=O)N[C@H](C(=O)N[C@@H](Cc1ccccc1)C(=O)N[C@]1(C)CCCCCC/C=C/CCC[C@@](C)(C(=O)N[C@@H](C)C(=O)N[C@@H](C)C(=O)N[C@@H](C)C(=O)N[C@@H](C)C(=O)N[C@@H](C)C(=O)N[C@H](C)C(N)=O)NC(=O)[C@H](CC(C)C)NC(=O)[C@H](CCC(N)=O)NC(=O)[C@H](C)NC(=O)[C@H](Cc2c[nH]c3ccccc23)NC(=O)[C@H](Cc2ccc(O)cc2)NC(=O)[C@H](CCC(=O)O)NC1=O)[C@@H](C)O`, the Activity [1] was 21.35%, the fraction unbound at up to 50 µM [2] was 0.08 and the AUC [3] was 914 µg·h/mL. For the same compound, the Activity [4] was 84%, the Activity [5] was 4.23% and the Activity [6] was “Tde”. The Activity [7] was “Dose-Dependent Effect”, the Activity [8] was “inactive” and the t1/2 [9] was 9 h. The Activity [10] was “Active”, the Activity [11] was “Active” and the half-life [12] was 4.9 h. For the same compound, the Activity [13] was “Non-Toxic”, the clearance [14] was 0.317 mL/min/kg and the Activity [15] was 0.5%. For the same compound, the Activity [16] was “Active”, the Cmax [17] was 186 µg/mL and the Activity [18] was “Active”. The half-life [19] was 1.4 h, the Activity [20] was “Dose-Dependent Effect” and the clearance [21] was 0.467 mL/min/kg. The Activity [22] was “inactive”, the solubility at 1 h [23] was ≤ 75 µg/mL and the fraction unbound at up to 50 µM [24] was 0.08. The Cmax [25] was 49.9 µg/mL, the Activity [26] was “Dose-Dependent Effect” and the Activity [27] was “Dose-Dependent Effect”. For the same compound, the Activity [28] was “inactive”, the Activity [29] was “Active” and the Activity [30] was “Tde”. For the same compound, the Activity [31] was “Dose-Dependent Effect”, the Cmax [32] was 236 µg/mL and the AUC [33] was 1350 µg·h/mL. It also gave an Activity [34] of 0.22%, a t1/2 [35] of 8.4 h and a half-life [36] of 2 h. It also gave a fraction unbound at up to 50 µM [37] of 0.08.
